# In patent US5747466A, “3-deoxy-3-descladinose derivatives of erythromycins A and B” (Abbott Laboratories, priority 1996, dated 1998):
# Like-named read-outs stand apart in the source and are kept apart here.
# How the values were obtained:
# Assay in all cases: In vitro antibacterial activity (MIC), agar dilution
# [1] = system: STAPHYLOCOCCUS AUREUS ATCC 6538P; type: cell-based; details: S. aureus ATCC 6538P; BHI agar, 35-37 °C, 20-24 h
# [2] = system: STAPHYLOCOCCUS AUREUS CMX 642A; type: cell-based; details: S. aureus CMX 642A; BHI agar, 35-37 °C, 20-24 h
# [3] = system: STAPHYLOCOCCUS AUREUS NCTC10649M; type: cell-based; details: S. aureus NCTC10649M; BHI agar, 35-37 °C, 20-24 h
# [4] = system: STAPHYLOCOCCUS AUREUS CMX 553; type: cell-based; details: S. aureus CMX 553; BHI agar, 35-37 °C, 20-24 h
# [5] = system: STAPHYLOCOCCUS AUREUS 1775; type: cell-based; details: S. aureus 1775; BHI agar, 35-37 °C, 20-24 h
# [6] = system: STAPHYLOCOCCUS EPIDERMIDIS 3519; type: cell-based
# EN[…] ATCC 8043 = type: cell-based, Enterococcus faecium; details: E. faecium ATCC 8043; BHI agar, 35-37 °C, 20-24 h
# Procedure: (§1) Representative compounds of the present invention were assayed in vitro for antibacterial activity as follows: Twelve petri dishes containing successive aqueous dilutions of the test compound mixed with 10 mL of sterilized Brain Heart Infusion (BHI) agar (Difco 0418-01-5) were prepared. Each plate was inoculated with 1:100 (or 1:10 for slow-growing strains, such as Micrococcus and Streptococcus) dilutions of up to 32 different microorganisms, using a Steers replicator block. The inoculated plates were incubated at 35°-37° C. for 20 to 24 hours. In addition, a control plate, using BHI agar containing no test compound, was prepared and incubated at the beginning and end of each test.
# (§2) An additional plate containing a compound having known susceptibility patterns for the organisms being tested and belonging to the same antibiotic class as the test compound was also prepared and incubated as a further control, as well as to provide test-to-test comparability. Erythromycin A was used for this purpose.
# (§3) After incubation, each plate was examined. The minimum inhibitory concentration (MIC) was defined as the lowest concentration of drug yielding no growth, a slight haze, or sparsely isolated colonies on the inoculum spot as compared to the growth control.
# [7] = system: STREPTOCOCCUS BOVIS A-5169; type: cell-based; details: S. bovis A-5169; BHI agar, 35-37 °C, 20-24 h
# STR[…] 508 = type: cell-based, Streptococcus agalactiae; details: S. agalactiae CMX 508; BHI agar, 35-37 °C, 20-24 h
# Procedure: as §1, §2, §3
# [8] = system: STREPTOCOCCUS PYOGENES EES61; type: cell-based; details: S. pyogenes EES61; BHI agar, 35-37 °C, 20-24 h
# M[…] ATCC 4698 = type: cell-based, Micrococcus luteus; details: M. luteus ATCC 4698; BHI agar, 35-37 °C, 20-24 h
# Procedure: as §1, §2, §3
# M[…] ATCC 9341 = type: cell-based, Micrococcus luteus; details: M. luteus ATCC 9341; BHI agar, 35-37 °C, 20-24 h
# Procedure: as §1, §2, §3
# ESCHERICHIA COLI SS = type: cell-based; details: E. coli SS; BHI agar, 35-37 °C, 20-24 h
# ESCHERICHIA COLI DC-2 = type: cell-based; details: E. coli DC-2; BHI agar, 35-37 °C, 20-24 h
# ESCHERICHIA COLI H560 = type: cell-based; details: E. coli H560; BHI agar, 35-37 °C, 20-24 h
# ESCHERICHIA COLI KNK 437 = type: cell-based
# [9] = system: ENTEROBACTER AEROGENES ATCC 13048; type: cell-based; details: E. aerogenes ATCC 13048; BHI agar, 35-37 °C, 20-24 h
# [10] = system: PROVIDENCIA STUARTII CMX 640; type: cell-based
# [11] = system: PSEUDOMONAS AERUGINOSA BMH10; type: cell-based; details: P. aeruginosa BMH10; BHI agar, 35-37 °C, 20-24 h
# [12] = system: PSEUDOMONAS AERUGINOSA 5007; type: cell-based; details: P. aeruginosa 5007; BHI agar, 35-37 °C, 20-24 h
# [13] = system: PSEUDOMONAS AERUGINOSA K799/WT; type: cell-based; details: P. aeruginosa K799/WT; BHI agar, 35-37 °C, 20-24 h
# PSEUDOMONAS CEPACIA 296I = type: cell-based; details: P. cepacia 296I; BHI agar, 35-37 °C, 20-24 h
# [14] = system: PSEUDOMONAS AERUGINOSA DPHD-5263; type: cell-based; details: P. aeruginosa DPHD-5263; BHI agar, 35-37 °C, 20-24 h
# [15] = system: PSEUDOMONAS AERUGINOSA DPHD-2862; type: cell-based; details: P. aeruginosa DPHD-2862; BHI agar, 35-37 °C, 20-24 h
# [16] = system: MYCOBACTERIUM SMEGMATIS ATCC 114; type: cell-based; details: M. smegmatis ATCC 114; BHI agar, 35-37 °C, 20-24 h
# [17] = system: NOCARDIA ARSTEROIDES ATCC 9970; type: cell-based; details: Nocardia ATCC 9970; BHI agar, 35-37 °C, 20-24 h
# [18] = S. epidermidis 3519, BHI agar, 35-37 °C, 20-24 h
# [19] = E. coli KNK 437, BHI agar, 35-37 °C, 20-24 h
# [20] = P. stuartii CMX 640, BHI agar, 35-37 °C, 20-24 h
SMILES,minimum inhibitory concentration (MIC) [1],minimum inhibitory concentration (MIC) [2],minimum inhibitory concentration (MIC) [3],minimum inhibitory concentration (MIC) [4],minimum inhibitory concentration (MIC) [5],minimum inhibitory concentration (MIC) (EN[…] ATCC 8043),minimum inhibitory concentration (MIC) [7],minimum inhibitory concentration (MIC) (STR[…] 508),minimum inhibitory concentration (MIC) [8],minimum inhibitory concentration (MIC) (M[…] ATCC 4698),minimum inhibitory concentration (MIC) (M[…] ATCC 9341),minimum inhibitory concentration (MIC) (ESCHERICHIA COLI SS),minimum inhibitory concentration (MIC) (ESCHERICHIA COLI DC-2),minimum inhibitory concentration (MIC) (ESCHERICHIA COLI H560),minimum inhibitory concentration (MIC) [9],minimum inhibitory concentration (MIC) [11],minimum inhibitory concentration (MIC) [12],minimum inhibitory concentration (MIC) [13],minimum inhibitory concentration (MIC) (PSEUDOMONAS CEPACIA 296I),minimum inhibitory concentration (MIC) [14],other results
"CC[C@H]1OC(=O)[C@H](C)[C@@H](O[C@H]2C[C@@](C)(OC)[C@@H](O)[C@H](C)O2)[C@H](C)[C@@H](O[C@@H]2O[C@H](C)C[C@H](N(C)C)[C@H]2O)[C@](C)(O)C[C@@H](C)C(=O)[C@H](C)[C@@H](O)[C@]1(C)O [Ery A, Erythromycin A, reference compound]",0.1,0.2,0.2,0.2,> 100,0.05,0.02,0.02,0.02,0.2,0.02,0.2,100,25,> 100,100,> 100,100,> 100,100,minimum inhibitory concentration (MIC) [6]: 0.1; minimum inhibitory concentration (MIC) (ESCHERICHIA COLI KNK 437): 100; minimum inhibitory concentration (MIC) [10]: > 100; minimum inhibitory concentration (MIC) [15]: 100; minimum inhibitory concentration (MIC) [16]: 25; minimum inhibitory concentration (MIC) [17]: 0.05
CC[C@H]1OC(=O)[C@H](C)C[C@H](C)[C@@H](O[C@@H]2O[C@H](C)C[C@H](N(C)C)[C@H]2O)[C@](C)(OC)C[C@@H](C)C(=O)[C@H](C)[C@@H](O)[C@]1(C)O [Ex. 1],25,25,6.2,25,> 100,25,0.78,3.1,1.56,6.2,3.1,0.78,> 100,> 100,> 100,> 100,> 100,> 100,> 100,> 100,"minimum inhibitory concentration (MIC) [6, 18]: 50; minimum inhibitory concentration (MIC) (ESCHERICHIA COLI KNK 437; [19]): > 100; minimum inhibitory concentration (MIC) [10, 20]: > 100; minimum inhibitory concentration (MIC) [15]: > 100; minimum inhibitory concentration (MIC) [16]: 100; minimum inhibitory concentration (MIC) [17]: 1.56"
CC[C@H]1OC(=O)[C@H](C)C[C@H](C)[C@@H](O[C@@H]2O[C@H](C)C[C@H](N(C)C)[C@H]2O)[C@](C)(OC)C[C@@H](C)C(=O)[C@H](C)[C@H]2OC(=O)O[C@@]21C [Ex. 3],6.2,3.1,6.2,3.1,> 100,0.78,0.2,0.2,0.2,0.78,0.78,0.78,> 100,> 100,> 100,> 100,> 100,> 100,> 100,> 100,"minimum inhibitory concentration (MIC) [6, 18]: 6.2; minimum inhibitory concentration (MIC) (ESCHERICHIA COLI KNK 437; [19]): > 100; minimum inhibitory concentration (MIC) [10, 20]: > 100; minimum inhibitory concentration (MIC) [15]: > 100; minimum inhibitory concentration (MIC) [16]: 3.1; minimum inhibitory concentration (MIC) [17]: 0.2"
